This assay addresses T1, SauUSI (Staphylococcus aureus, UniProt A0A0H2XK17).
T1 sequence (A0A0H2XK17 1-953): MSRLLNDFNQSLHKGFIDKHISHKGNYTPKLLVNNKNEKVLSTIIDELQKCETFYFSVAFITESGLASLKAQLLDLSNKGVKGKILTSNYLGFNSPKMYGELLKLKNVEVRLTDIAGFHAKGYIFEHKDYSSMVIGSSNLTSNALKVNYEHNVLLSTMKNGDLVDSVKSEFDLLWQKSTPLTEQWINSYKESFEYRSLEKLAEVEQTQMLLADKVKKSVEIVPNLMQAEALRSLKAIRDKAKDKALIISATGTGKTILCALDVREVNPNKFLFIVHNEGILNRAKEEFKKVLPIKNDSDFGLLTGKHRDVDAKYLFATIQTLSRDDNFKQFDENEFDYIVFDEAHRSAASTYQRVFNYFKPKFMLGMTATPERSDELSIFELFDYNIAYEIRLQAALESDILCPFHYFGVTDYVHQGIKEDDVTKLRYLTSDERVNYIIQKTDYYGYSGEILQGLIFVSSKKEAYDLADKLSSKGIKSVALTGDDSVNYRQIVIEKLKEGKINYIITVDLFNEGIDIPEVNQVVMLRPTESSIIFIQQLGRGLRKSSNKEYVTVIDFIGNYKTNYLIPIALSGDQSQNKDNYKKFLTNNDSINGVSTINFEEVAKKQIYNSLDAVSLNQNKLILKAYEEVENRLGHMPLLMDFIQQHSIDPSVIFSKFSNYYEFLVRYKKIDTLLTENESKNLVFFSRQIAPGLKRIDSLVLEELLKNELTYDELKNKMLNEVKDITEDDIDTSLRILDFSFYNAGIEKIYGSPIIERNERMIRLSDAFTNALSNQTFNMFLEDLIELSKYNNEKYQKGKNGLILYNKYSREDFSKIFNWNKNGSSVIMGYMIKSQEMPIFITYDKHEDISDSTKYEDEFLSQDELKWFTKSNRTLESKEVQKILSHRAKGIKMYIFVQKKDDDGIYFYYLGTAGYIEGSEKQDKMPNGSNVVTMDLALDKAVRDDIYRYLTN
Description: biochemical.

The structures appear in SMILES notation.

Regarding `Nc1ncnc2c1ncn2[C@@H]1O[C@H](COP(=O)(O)OP(=O)(O)OP(=O)(O)O)[C@@H](O)[C@H]1O` [ATP], the IC50 – broadly, the point on the concentration scale where inhibition reaches its midpoint – is approximately 760 µM.

Source of the values: publication doi:10.1101/2022.12.11.519956v1 (biorxiv, 2022).
